From patent US20120115852A1, “HETEROCYCLIC COMPOUNDS AS AUTOTAXIN INHIBITORS” (Merck Patent Gesellschaft Mit Beschrankter Haftung, priority 2009, published 2012)

Target: T1, recombinant autotaxin (Homo sapiens, UniProt Q13822)
T1 construct: made in house; host or cells: Hi5 insect cells (baculovirus)
Experiment: Autotaxin test (enzyme test), Amplex Red fluorescence with LPC substrate
Assay type: biochemical
Conditions: autotaxin inhibition (enzyme test); for remaining activity at 10 µM: 10 μM compound, read-out: % Control at 10 μM
Experimental: Autotaxin Inhibition (Enzyme Test)
Autotaxin Test (Enzyme Test)
The autotaxin activity is measured indirectly using Amplex Red reagent. Amplex Red is measured here as fluorogenic indicator for the H2O2 formed. In detail, autotaxin converts the substrate lysophosphatidylcholine (LPC) into phosphocholine and lysophosphatidylic acid (LPA). After this reaction, the phosphocholine is reacted with alkaline phosphatase to give inorganic phosphate and choline. In the next step, choline is oxidised by choline oxidase to give betaine, with formation of H2O2. H2O2 reacts with Amplex Red reagent in the presence of peroxidase (horseradish peroxidase) in a 1:1 stoichiometry and forms the highly fluorescent resorufin. The fluorescence is measured in a reaction-dependent kinetic mode in order that fluorescent signals from possible other fluorescent substances which are not involved in the reaction can be corrected out.
3 μl of a standard solution or of the test substances (substances with the name A(n)) in individual concentrations dissolved in 20 mM Hepes pH 7.2 with a maximum of 11% of DMSO are pre-incubated together with 20 μl (19 ng) of highly purified recombinant autotaxin in test buffer in a black microtitre plate provided with 384 wells at 22° C. for 30 min. The reaction is then initiated by addition of 10 μl of L-α-lysophosphatidylcholine (LPC), where the final concentration of LPC is 75 μM. The mixture is incubated at 37° C. for 90 min. After the incubation, Amplex Red reagent, peroxidase (horseradish peroxidase) and choline oxidase is added, and the fluorescence is immediately measured at 612 nm with excitation of 485 nm in a “Tecan Ultra multimode” reader. The activity of autotaxin is calculated indirectly via detection of the H2O2 formed.
• Microtitre plate: PS microplate, 384 wells, small volume, black Corning, Cat#3677 • Protein: recombinant autotaxin (Baculovirale Hi5 Expression) • Substrate: L-α-lysophosphatidylcholine (chicken egg)); Avanti Polar Lipids #830071 P • Standard: C14 LPA, Avanti Polar Lipids, Cat#857120P • Detection reagent: Amplex Red reagent; Invitrogen #A12222; 5 mg dissolved in 1.923 ml of DMSO peroxidase type VI-A (horseradish) from Sigma #P6782; 5 mg dissolved in 7.45 ml of test buffer, choline oxidase; Sigma # C5896; 50 U dissolved in 2.47 ml of test buffer • Detection reagent mix: 1:50 dilution of detection reagent in test buffer • Test buffer: 10 mM Tris HCl, Merck, Cat #1.08219, pH 8, 1 mM; CaCl2×2 H2O, Merck #1.02382

`Nc1nc(C(=O)N2CCN3C(=O)c4cc(-c5ccc(Cl)cc5)ccc4NC(=O)C3C2)cs1` (stereo not drawn) [Compound A50, 2-(2-Aminothiazole-4-carbonyl)-7-(4-chlorophenyl)-1,3,4,11a-tetrahydro-2H,10H-2,4a,10-triaza-dibenzo[a,d]cycloheptene-5,11-dione] gave a remaining activity at 10 µM of 80%.
In the case of `CC(C)(C)[C@@H](NC=O)C(=O)N1CCN2C(=O)c3cc(-c4ccc(Cl)cc4)ccc3NC(=O)C2C1` (stereo partly drawn) [Compound A55, N-{(R)-1-[7-(4-Chlorophenyl)-5,11-dioxo-3,4,5,10,11,11a-hexahydro-1H-2,4a,10-triaza-dibenzo[a,d]cycloheptene-2-carbonyl]-2,2-dimethylpropyl}formamide], the remaining activity at 10 µM is reported as 71%.
`CC(C)(C(=O)N1CCN2C(=O)c3cc(-c4ccc(Cl)cc4)ccc3NC(=O)C2C1)c1ccccc1` (stereo not drawn) [Compound A46, 7-(4-Chlorophenyl)-2-(2-methyl-2-phenylpropionyl)-1,3,4,11a-tetrahydro-2H,10H-2,4a,10-triaza-dibenzo[a,d]cycloheptene-5,11-dione] was tested, and the IC50 was greater than 1000 nM.
`CC(C)(C)CC(=O)N1CCN2C(=O)c3cc(-c4cc(F)c(Cl)c(F)c4)ccc3NC(=O)C2C1` (stereo not drawn) [Compound A79, 7-(4-Chloro-3,5-difluorophenyl)-2-(3,3-dimethyl-butyryl)-1,3,4,11a-tetrahydro-2H,10H-2,4a,10-triazadibenzo[a,d]cycloheptene-5,11-dione] was tested, and the remaining activity at 10 µM was -14% and the IC50 was 100 to 1000 nM.
Work on `O=C1Nc2ccc(-c3ccc(Cl)cc3)cc2C(=O)N2CCN(C(=O)[C@@H](O)c3ccccc3)C[C@H]12` [Compound A1, (R)-7-(4-Chlorophenyl)-2-((S)-2-hydroxy-2-phenylacetyl)-1,3,4,11a-tetrahydro-2H,10H-2,4a,10-triazadibenzo[a,d]cycloheptene-5,11-dione] yielded an IC50 greater than 1000 nM.
With `CC(C)(C)CCN1CCN2C(=O)c3cc(-c4ccc(Cl)cc4F)ccc3NC(=O)C2C1` (stereo not drawn) [Compound A33] the remaining activity at 10 µM was 72% and the IC50 was greater than 1000 nM.
For `CC(C)(C)CC(=O)N1CCN2C(=O)c3cc(OC(F)(F)F)ccc3NC(=O)C2C1` (stereo not drawn) [Compound A133, 2-(3,3-Dimethylbutyryl)-7-trifluoromethoxy-1,3,4,11a-tetrahydro-2H,10H-2,4a,10-triaza-dibenzo[a,d]cycloheptene-5,11-dione], the remaining activity at 10 µM was 27% and the IC50 was greater than 1000 nM.
`O=C1Nc2ccc(-c3ccc(Cl)cc3)cc2C(=O)N2CCN(C(=O)C3CCCCC3)C[C@H]12` [Compound B17] gave a remaining activity at 10 µM of 26% and an IC50 greater than 1000 nM.
Work on `O=C([C@@H]1CCCN1C1CCNCC1)N1CCN2C(=O)c3cc(-c4ccc(Cl)cc4F)ccc3N(CCC3CCNCC3)C(=O)[C@H]2C1` [Compound A158] yielded a remaining activity at 10 µM of 21% and an IC50 greater than 1000 nM.
`CC(C)(C)CC(=O)N1CCN2C(=O)c3cc(-c4ccc(Cl)c(Cl)c4)ccc3NC(=O)C2C1` (stereo not drawn) [Compound A104, 7-(3,4-Dichlorophenyl)-2-(3,3-dimethylbutyryl)-1,3,4,11a-tetrahydro-2H,10H-2,4a,10-triaza-dibenzo[a,d]cycloheptene-5,11-dione] was tested, and the remaining activity at 10 µM was -13% and the IC50 was 100 to 1000 nM.
`CN(C)CCN1C(=O)[C@H]2CN(C(=O)[C@@H]3CCCN3C3CCNCC3)CCN2C(=O)c2cc(-c3ccc(Cl)cc3F)ccc21` [Compound A156] gave a remaining activity at 10 µM of 7% and an IC50 of 100 to 1000 nM.
`CN1CCN(C(=O)CN2C(=O)[C@H]3CN(C(=O)CC(C)(C)C)CCN3C(=O)c3cc(-c4ccc(Cl)cc4F)ccc32)CC1` [Compound A149] gave a remaining activity at 10 µM of 15% and an IC50 greater than 1000 nM.
In the case of `CC(C)(C)CC(=O)N1CCN2C(=O)c3cc(-c4ccc(Cl)cc4F)ccc3N(CC(N)=O)C(=O)[C@H]2C1` [Compound A150], the remaining activity at 10 µM is reported as 3% and the IC50 is reported as 100 to 1000 nM.
In the case of `O=C1Nc2ccc(-c3ccc(Cl)cc3)cc2C(=O)N2CCN(C(=O)C3CSC(c4ccncc4)N3)CC12` (stereo not drawn) [Compound A71, 7-(4-Chlorophenyl)-2-(2-pyridin-4-ylthiazolidine-4-carbonyl)-1,3,4,11a-tetrahydro-2H,10H-2,4a,10-triazadibenzo[a,d]cycloheptene-5,11-dione], the remaining activity at 10 µM is reported as 7% and the IC50 is reported as greater than 1000 nM.
In the case of `CC(C)(C)CC(=O)N1CCN2C(=O)c3cc(-c4ccc(Cl)cc4F)ccc3NC(=O)[C@H]2C1` [Compound A100, (R)-7-(4-Chloro-2-fluorophenyl)-2-(3,3-dimethyl-butyryl)-1,3,4,11a-tetrahydro-2H,10H-2,4a,10-triazadibenzo[a,d]cycloheptene-5,11-dione], the remaining activity at 10 µM is reported as 11% and the IC50 is reported as greater than 1000 nM.
With `CC(C)[C@H](N)C(=O)N1CCN2C(=O)c3cc(-c4ccc(Cl)cc4F)ccc3NC(=O)[C@@H]2C1` [Compound A62, (S)-2-((S)-2-Amino-3-methylbutyryl)-7-(4-chloro-2-fluorophenyl)-1,3,4,11a-tetrahydro-2H,10H-2,4a,10-triazadibenzo[a,d]cycloheptene-5,11-dione] the remaining activity at 10 µM was 27% and the IC50 was greater than 1000 nM.
`CC(C)(C)CC(=O)N1CCN2C(=O)c3cc(-c4ccc(Cl)cc4)cnc3NC(=O)C2C1` (stereo not drawn) [Compound A139, 3-(4-Chlorophenyl)-8-(3,3-dimethylbutyryl)-7,8,9,9a-tetrahydro-6H,11H-1,5a,8,11-tetraazadibenzo-[a,d]cycloheptene-5,10-dione] showed a remaining activity at 10 µM of 45% and an IC50 greater than 1000 nM.
Compound `CC(C)(C)CC(=O)N1CCN2C(=O)c3cc(-c4ccccc4Cl)ccc3NC(=O)C2C1` (stereo not drawn) [Compound A103, 7-(2-Chlorophenyl)-2-(3,3-dimethylbutyryl)-1,3,4,11a-tetrahydro-2H,10H-2,4a,10-triaza-dibenzo[a,d]cycloheptene-5,11-dione] has a remaining activity at 10 µM of -10% and an IC50 greater than 1000 nM.
In the case of `O=C1Nc2ccc(-c3ccc(Cl)cc3F)cc2C(=O)N2CCN(C(=O)[C@@H]3CCCN3C3CCNCC3)C[C@H]12` [Compound A117, (R)-7-(4-Chloro-2-fluorophenyl)-2-((S)-1-piperidin-4-ylpyrrolidine-2-carbonyl)-1,3,4,11a-tetrahydro-2H,10H-2,4a,10-triazadibenzo[a,d]cycloheptene-5,11-dione], the remaining activity at 10 µM is reported as 16% and the IC50 is reported as greater than 1000 nM.
Work on `CN1CCN(C(=O)CN2C(=O)[C@H]3CN(C(=O)[C@@H]4CCCN4C4CCNCC4)CCN3C(=O)c3cc(-c4ccc(Cl)cc4F)ccc32)CC1` [Compound A154] yielded a remaining activity at 10 µM of 27% and an IC50 greater than 1000 nM.
Compound `CN1CCN(C(=O)CN2C(=O)C3CN(C(=O)CC(C)(C)C)CCN3C(=O)c3cc(-c4ccc(Cl)cc4F)ccc32)CC1` (stereo not drawn) [Compound A144] has a remaining activity at 10 µM of 11% and an IC50 greater than 1000 nM.
Compound `CC(O)(C(=O)N1CCN2C(=O)c3cc(-c4ccc(Cl)cc4)ccc3NC(=O)C2C1)c1ccccc1` (stereo not drawn) [Compound A39, 7-(4-Chlorophenyl)-2-(2-hydroxy-2-phenylpropionyl)-1,3,4,11a-tetrahydro-2H,10H-2,4a,10-triazadibenzo[a.d]cycloheptene-5,11-dione] has a remaining activity at 10 µM of 22% and an IC50 greater than 1000 nM.
`CC1(C)SCN[C@@H]1C(=O)N1CCN2C(=O)c3cc(-c4ccc(Cl)cc4F)ccc3NC(=O)C2C1` (stereo partly drawn) [Compound A68, 7-(4-Chloro-2-fluorophenyl)-2-((R)-5,5-dimethyl-thiazolidine-4-carbonyl)-1,3,4,11a-tetrahydro-2H,10H-2,4a,10-triazadibenzo[a,d]cycloheptene-5,11-dione] gave a remaining activity at 10 µM of -18% and an IC50 of 100 to 1000 nM.
`CC(C)(C)[C@H](N)C(=O)N1CCN2C(=O)c3cc(-c4ccc(Cl)cc4F)ccc3NC(=O)[C@H]2C1` [Compound A65, (R)-2-((S)-2-Amino-3,3-dimethylbutyryl)-7-(4-chloro-2-fluorophenyl)-1,3,4,11a-tetrahydro-2H,10H-2,4a,10-triazadibenzo[a,d]cycloheptene-5,11-dione] gave a remaining activity at 10 µM of 48.5% and an IC50 greater than 1000 nM.
With `O=C1Nc2ccc(-c3ccc(Cl)c(F)c3)cc2C(=O)N2CCN(C(=O)[C@@H]3CCCN3C3CCNCC3)C[C@H]12` [Compound A102, (R)-7-(4-Chloro-3-fluorophenyl)-2-((S)-1-piperidin-4-ylpyrrolidine-2-carbonyl)-1,3,4,11a-tetrahydro-2H,10H-2,4a,10-triazadibenzo[a,d]cycloheptene-5,11-dione] the remaining activity at 10 µM was 7% and the IC50 was 100 to 1000 nM.
For `O=C1Nc2ccc(-c3ccc(Cl)cc3)cc2C(=O)N2CCN(C(=O)CC3CCCC3)CC12` (stereo not drawn) [Compound A25, 7-(4-Chlorophenyl)-2-(2-cyclopentylacetyl)-1,3,4,11a-tetrahydro-2H,10H-2,4a,10-triaza-dibenzo[a,d]cycloheptene-5,11-dione], the remaining activity at 10 µM was 11% and the IC50 was greater than 1000 nM.
